The text below walks through data of publication PMC6010082, “Synthesis and in vitro antiproliferative and antibacterial activity of new thiazolidine-2,4-dione derivatives” (Journal of Enzyme Inhibition and Medicinal Chemistry, 2017).

For one data set, the system named is MCF-7. Further details: method as in earlier work. Particulars: MCF-7 tumour cells; ref 6 (Alegaon et al.); cited from earlier work.
The next data set deals with A549. The arrangement: method as in earlier work. Particulars: A549 tumour cells; ref 6 (Alegaon et al.); cited from earlier work.
The test system of data set [1] is human lung carcinoma (A549). Description: MTT antiproliferative assay, A549 cells. The data set is classed as cell-based. Particulars: for IC50: Homo sapiens, MTT, 48 h exposure, read-out: IC50 [µg/ml] ± SEM, A549; for SI [IC50BJ/IC50], A549: safety index = IC50 normal cells (BJ)/IC50 A549. The procedure: (§1) The experiment was carried out using normal human skin fibroblasts (BJ) and tumour cell lines: human lung carcinoma (A549), human hepatocellular carcinoma (HepG2), and human breast adenocarcinoma (MCF-7). All cell lines were obtained from ATCC (American Type Culture Collection, England, UK) and cultured in the appropriate, recommended by ATCC, culture medium, additionally supplemented with 10% foetal bovine serum and antibiotics: 100 U/ml penicillin and 100 µg/ml streptomycin. The cells were maintained at 37 °C in a humidified atmosphere of 5% CO2 and 95% air. Antiproliferative activity of the new compounds was assessed by, commonly used for this purpose, colorimetric MTT assay. Cells with active mitochondrial dehydrogenases reduced intracellularly the tetrazolium dye into purple formazan, which is proportional to the number of viable cells. The cells were seeded in 96-multiwell plates in 100 μl of the appropriate complete culture medium at a concentration of 7 × 10^3 cells/well in the case of BJ cells (normal fibroblasts), 1 × 10^4 cells/well in the case of A549 cells (lung cancer), 1.5 × 10^4 cells/well in the case of HepG2 cells (liver cancer), and 2 × 10^4 cells/well in the case of MCF-7 cells (breast cancer) so as to obtain 60–70% confluent culture after 24 h of incubation at 37 °C – the cells are then in the log (logarithmic) phase, during a period of active proliferation, but still have an unoccupied space to divide. Afterwards, the culture medium was discarded and replaced with 100 µl of different concentrations of new tested compounds and reference antiproliferative agent: irinotecan. The stock solutions of the compounds were prepared in DMSO, and solvent control was being tested concurrently to exclude toxicity attributed to DMSO. Ten serial two-fold dilutions using culture medium were performed to prepare different concentrations of the tested compounds, and the highest tested concentration was 200 µg/ml. Untreated cells (maintained in the complete culture medium) served as a negative control. After exposing cells for 48 h to the tested derivatives, the MTT assay was performed as described earlier. Three independent experiments (n = 3) were performed in a quadruplicate. The obtained data were analysed using GraphPad Prism 5, version 5.03 software (La Jolla, CA). […] Moreover, safety index (SI) was calculated using the following formula: SI=IC50normal cells (BJ)/IC50cancer cells

Data set [2] deals with human hepatocellular carcinoma (HepG2). Description: MTT antiproliferative assay, HepG2 cells. The conditions noted are these: for IC50: Homo sapiens, MTT, 48 h exposure, read-out: IC50 [µg/ml] ± SEM, HepG2; for SI [IC50BJ/IC50], HepG2: safety index = IC50 normal cells (BJ)/IC50 HepG2. The data set is classed as cell-based. How it is done:
as §1
In general terms: Tetrazolium assays rely on reduction of a dye to a coloured formazan, in cell work by metabolically active cells.

The test system of data set [3] is human breast adenocarcinoma (MCF-7). The experiment in a line: MTT antiproliferative assay, MCF-7 cells. The data set is classed as cell-based. The conditions noted are these: for IC50: Homo sapiens, MCF7, MTT, 48 h exposure, read-out: IC50 [µg/ml] ± SEM, MCF-7; for SI [IC50BJ/IC50], MCF-7: safety index = IC50 normal cells (BJ)/IC50 MCF-7. How it is done: as §1
For data set [4], the system named is normal human skin fibroblasts (BJ). Description: MTT assay, normal fibroblasts BJ. The data set is classed as cell-based. Particulars: Skin fibroblast, 48 h exposure, read-out: IC50 [µg/ml] ± SEM, BJ. The procedure: as §1
Data set [5] concerns Staphylococcus aureus ATCC 25923. Description: Broth microdilution MIC, S. aureus ATCC 25923. It is filed as cell-based. The conditions noted are these: 35 °C; for Minimal inhibitory concentration MIC, Staphylococcus aureus 25923: 18 h; for MIC: Staphylococcus aureus, ATCC25923, 18 h, read-out: Minimal inhibitory concentration MIC, Staphylococcus aureus 25923. How it is done: (§2) Newly synthesised compounds’ antibacterial activities were tested in vitro against six aerobic bacteria reference strains: three Gram-positive (Staphylococcus aureus ATCC 25923, methicillin-resistant S. aureus MIKROBANK 14.001 reference strain from National Medicines Institute in Warsaw, and Staphylococcus epidermidis ATCC 12228) and three Gram-negative (Escherichia coli ATCC 25922, Proteus mirabilis ATCC 12453, and Pseudomonas aeruginosa ATCC 9027).
(§3) Bacterial cell suspensions equivalent to 0.5 McFarland (1.5 × 10^8 CFU/ml) were prepared in 0.85% sterile saline. Tested compounds’ stock solutions (50 mg/ml) were dissolved in dimethyl sulphoxide (DMSO).
(§4) Bacteria strain susceptibility to tested agents was determined by broth microdilution method. Broth microdilution method was carried out in accordance with Clinical and Laboratory Standards Institute recommendations and was used as reference method. Mueller–Hinton broth containing two-fold dilutions of the tested substances (at concentrations ranging from 3.91 to 1000 µg/ml) was used to determine their minimal inhibitory concentration (MIC) which is the lowest concentration of an antibacterial that will inhibit the visible growth of a microorganism after 18 h of incubation). Mueller–Hinton broth is recommended as the medium of choice for susceptibility testing of commonly isolated, rapidly growing aerobic, or facultative organisms. Gentamicin (KRKA, Slovenia), an aminoglycoside antibiotic active against a wide range of human bacterial infections, mostly Gram-negative bacteria including Pseudomonas, Proteus, Serratia, and the Gram-positive Staphylococcus, was used as a control antibacterial agent (at concentration from 0.12 µg to 1000 µg).
(§5) Tested compounds two-fold dilutions in Mueller–Hinton broth without bacteria were blank control wells (incubated on equal conditions). Polystyrene trays containing 96 wells were filled with serial two-fold Mueller–Hinton broth dilutions of tested agents. Next, the broth was inoculated with 20 μl of 0.5 McFarland microbial suspension (previously diluted 1:10 by Mueller–Hinton broth). Total volume per each well was 200 μl. After incubation (at 35 °C for 18 h), bacterial cultures’ optical density was measured by microplate reader (BioTek Synergy H4 Hybrid Reader) at 600 nm. The MIC values were determined by the comparison of broth bacterial culture OD600 containing tested concentrations of examined substances to blank control wells.
On the technique in general: Dilution methods test growth across graded concentrations, often in twofold steps.

The test system of data set [6] is methicillin-resistant S. aureus MIKROBANK 14.001. The experiment in a line: Broth microdilution MIC, methicillin-resistant S. aureus. The conditions noted are these: methicillin-resistant strain, 18 h, 35 °C; for MIC: Staphylococcus aureus, read-out: Minimal inhibitory concentration MIC, Staphylococcus aureus MIKROBANK 14.001. The data set is classed as cell-based, Staphylococcus aureus. How it is done: as §2, §3, §4, §5

The test system of data set [7] is Staphylococcus epidermidis ATCC 12228. Description: Broth microdilution MIC, S. epidermidis ATCC 12228. The data set is classed as cell-based. Particulars: 35 °C; for Minimal inhibitory concentration MIC, Staphylococcus epidermidis 12228: 18 h; for MIC: Staphylococcus epidermidis, ATCC12228, 18 h, read-out: Minimal inhibitory concentration MIC, Staphylococcus epidermidis 12228. The procedure: as §2, §3, §4, §5

Data set [8] relates to Escherichia coli ATCC 25922. Description: Broth microdilution MIC, E. coli ATCC 25922. The data set is classed as cell-based. Particulars: ATCC25922, 18 h, 35 °C, read-out: Concentration inhibiting E. coli ATCC 25922 growth (MIC). The procedure: as §2, §3
Bacteria strain susceptibility to tested agents was determined by broth microdilution method. Broth microdilution method was carried out in accordance with Clinical and Laboratory Standards Institute recommendations and was used as reference method. […]
Tested compounds two-fold dilutions in Mueller–Hinton broth without bacteria were blank control wells (incubated on equal conditions). […] After incubation (at 35 °C for 18 h), bacterial cultures’ optical density was measured by microplate reader (BioTek Synergy H4 Hybrid Reader) at 600 nm. The MIC values were determined by the comparison of broth bacterial culture OD600 containing tested concentrations of examined substances to blank control wells.

[9] abbreviates: MCF-7 cells, compared to irinotecan.

In brackets after ≈: the same amount, converted by molar mass.

Take `COc1cc(-c2nnc(NC(=O)CC3SC(=O)NC3=O)s2)cc(OC)c1OC` (centres unmarked) [2-(2,4-dioxo-1,3-thiazolidin-5-yl)-N-[5-(3,4,5-trimethoxyphenyl)-1,3,4-thiadiazol-2-yl]acetamide]: in the data set with MCF-7, the “IC50, MCF-7 (literature)” value was 15.28 µg/mL (≈ 36 µM). In addition, in the data set with A549, the “IC50, A549 (literature)” value is 12.7 µg/mL (≈ 29.9 µM).
In the case of `O=C(C=C1SC(=O)NC1=O)Oc1ccccc1C=NNC(=O)c1cccc(Cl)c1` [Compound 18, 2-{[2-(3-Chlorobenzoyl)hydrazinylidene]methyl}phenyl (2,4-dioxo-1,3-thiazolidin-5-ylidene)acetate], the melting point was in the range of 243 to 245 °C. Also, the “IC50 fold lower compared to irinotecan, A549” value in data set [1] (A549 cells, compared to irinotecan) is on record as “five-fold lower”. The IC50 in [1] (A549 cells) turned out to be 8.08 ± 1.05 µg/mL (≈ 18.8 µM). Further, the “SI [IC50BJ/IC50], A549” value in data set [1] was 1.24. Moreover, the “IC50 fold lower compared to irinotecan, HepG2” value in data set [2] (HepG2 cells, compared to irinotecan) is listed as “four-fold lower”. Further, in [2] (HepG2 cells), the IC50 is 3.86 ± 1.07 µg/mL (≈ 8.98 µM). Also, the IC50 in [3] (MCF-7 cells) was 1.59 ± 1.06 µg/mL (≈ 3.7 µM). Also, in data set [3] (setting [9]), the “IC50 fold lower than IC50 of irinotecan, MCF-7” value came to 13 fold and the “SI value compared to the reference substance, MCF-7” value is recorded as “three-fold higher”. Moreover, the IC50 in data set [4] came to 10.1 ± 1.18 µg/mL (≈ 23.4 µM). Also, in data set [5], the “Minimal inhibitory concentration MIC, Staphylococcus aureus 25923” value came out at 62.5 µg/mL and the MIC was 62.5 µg/mL. In data set [6], the MIC turned out to be 125 µg/mL and the “Minimal inhibitory concentration MIC, Staphylococcus aureus MIKROBANK 14.001” value was found to be 125 µg/mL. Besides, in data set [7], the “Minimal inhibitory concentration MIC, Staphylococcus epidermidis 12228” value worked out at 125 µg/mL and the MIC was 125 µg/mL. For the same compound, the MIC in data set [8] turned out to be 125 µg/mL.
In turn, `O=C(CC1SC(=O)NC1=O)Oc1cccc(C=NNC(=S)Nc2ccccc2)c1` (centres unmarked) [Compound 22, 3-{[2-(Phenylcarbamothioyl)hydrazinylidene]methyl}phenyl (2,4-dioxo-1,3-thiazolidin-5-yl)acetate] displayed a melting point of 209 to 211 °C. For the same compound, in data set [1] (A549 cells), the IC50 amounted to 57.3 ± 1.19 µg/mL (≈ 134 µM). Also, the “SI [IC50BJ/IC50], A549” value in data set [1] is listed as 1.43. Further, the IC50 in data set [2] (HepG2 cells) amounted to 48.3 ± 1.07 µg/mL (≈ 113 µM). For the same compound, the “SI [IC50BJ/IC50], HepG2” value in data set [2] came out at 1.69. In addition, the IC50 in [3] (MCF-7 cells) stood at 72 ± 1.1 µg/mL (≈ 168 µM). Moreover, the “SI [IC50BJ/IC50], MCF-7” value in data set [3] turned out to be 1.13. For the same compound, in data set [4], the IC50 came out at 81.6 ± 1.11 µg/mL (≈ 190 µM).
Regarding `Cc1ccc(NC(=S)NN=Cc2cccc(OC(=O)CC3SC(=O)NC3=O)c2)cc1` (centres unmarked) [Compound 23, 3-[{2-[(4-Methylphenyl)carbamothioyl]hydrazinylidene}methyl]phenyl (2,4-dioxo-1,3-thiazolidin-5-yl)acetate], the melting point is 194 to 196 °C. Further, the IC50 in data set [1] (A549 cells) worked out at 31.3 ± 1.66 µg/mL (≈ 70.8 µM). Further, the “SI [IC50BJ/IC50], A549” value in data set [1] came to 0.80. Moreover, the IC50 in data set [2] (HepG2 cells) was found to be 15.2 ± 1.25 µg/mL (≈ 34.3 µM). Further, the “SI [IC50BJ/IC50], HepG2” value in [2] is given as 1.66. The IC50 in data set [3] (MCF-7 cells) was found to be 34.2 ± 1.12 µg/mL (≈ 77.2 µM). In addition, the “SI [IC50BJ/IC50], MCF-7” value in data set [3] is reported as 0.74. The IC50 in [4] was 25.2 ± 1.52 µg/mL (≈ 56.9 µM). Further, in [5], the “Minimal inhibitory concentration MIC, Staphylococcus aureus 25923” value is 125 µg/mL and the MIC is 125 µg/mL. Further, in [6], the MIC was determined as 125 µg/mL and the “Minimal inhibitory concentration MIC, Staphylococcus aureus MIKROBANK 14.001” value stood at 125 µg/mL. In data set [7], the “Minimal inhibitory concentration MIC, Staphylococcus epidermidis 12228” value is 62.5 µg/mL and the MIC turned out to be 62.5 µg/mL.

The melting point is the temperature, or range, at which the solid turns liquid.
